# Results as given in patent US20050112573A1, “Method of detecting toxic substance” (priority 2001, published 2005).
# Tested on: yeast genes (level of expressed mRNA)
# Experiment: DNA chip analysis of expressed mRNA of yeast genes after 2 h culture with a toxic chemical substance
# Format: cell-based, Saccharomyces cerevisiae S288C
# Method in brief: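 Values are treated-to-control fluorescence ratios from a whole-yeast-genome DNA chip (65° C, over 12 h hybridization) using Cy3/Cy5-labelled cDNA from mRNA. Log-phase S288C cells in YPD at 25° C were exposed 2 h to a toxicant at sublethal, growth-inhibiting concentration.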
substance,measurement,setting,value
CdCl2 [(2)],The level of expressed mRNA in the presence of chemical substance/,"yeast gene YFL010C, ratio to control without chemical substance, 2 h culture",4.8
same,The level of expressed mRNA in the presence of chemical substance/,"yeast gene YFL024C, ratio to control without chemical substance, 2 h culture",1.1
same,The level of expressed mRNA in the presence of chemical substance/The level of expressed mRNA in the absence of chemical substance,yeast gene YFL028C,1.1
same,The level of expressed mRNA in the presence of chemical substance/,"yeast gene YFL032W, ratio to control without chemical substance, 2 h culture",1.5
same,The level of expressed mRNA in the presence of chemical substance/The level of expressed mRNA in the absence of chemical substance,yeast gene YFL043C,1.2
same,The level of expressed mRNA in the presence of chemical substance/in the absence of chemical substance,yeast gene YGL035C,1.4
same,The level of expressed mRNA in the presence of chemical substance/,"yeast gene YGL037C, ratio to control without chemical substance, 2 h culture",2.7
same,The level of expressed mRNA in the presence of chemical substance/,"yeast gene YGL047W, ratio to control without chemical substance, 2 h culture",1.9
same,The level of expressed mRNA in the presence of chemical substance/,"yeast gene YGL053W, ratio to control without chemical substance, 2 h culture",1.5
same,The level of expressed mRNA in the presence of chemical substance/,"yeast gene YGL121C, ratio to control without chemical substance, 2 h culture",5.0
same,The level of expressed mRNA in the presence of chemical substance/The level of expressed mRNA in the absence of chemical substance,yeast gene YGL158W,2.8
same,The level of expressed mRNA in the presence of chemical substance/,"yeast gene YGL199C, ratio to control without chemical substance, 2 h culture",1.7
same,The level of expressed mRNA in the presence of chemical substance/The level of expressed mRNA in the absence of chemical substance,yeast gene YGL229C,0.7
same,The level of expressed mRNA in the presence of chemical substance/,"yeast gene YGR101W, ratio to control without chemical substance, 2 h culture",1.3
same,The level of expressed mRNA in the presence of chemical substance/,"yeast gene YGR110W, ratio to control without chemical substance, 2 h culture",3.1
same,The level of expressed mRNA in the presence of chemical substance/,"yeast gene YGR130C, ratio to control without chemical substance, 2 h culture",0.7
same,The level of expressed mRNA in the presence of chemical substance/The level of expressed mRNA in the absence of chemical substance,yeast gene YGR136W,1.2
same,The level of expressed mRNA in the presence of chemical substance/,"yeast gene YGR154C, ratio to control without chemical substance, 2 h culture",2.9
same,The level of expressed mRNA in the presence of chemical substance/The level of expressed mRNA in the absence of chemical substance,yeast gene YGR189C,0.9
same,The level of expressed mRNA in the presence of chemical substance/The level of expressed mRNA in the absence of chemical substance,yeast gene YGR213C,2.9
same,The level of expressed mRNA in the presence of chemical substance/,"yeast gene YGR221C, ratio to control without chemical substance, 2 h culture",2.2
same,The level of expressed mRNA in the presence of chemical substance/The level of expressed mRNA in the absence of chemical substance,yeast gene YGR257C,0.8
same,The level of expressed mRNA in the presence of chemical substance/in the absence of chemical substance,yeast gene YGR287C,1.0
same,The level of expressed mRNA in the presence of chemical substance/The level of expressed mRNA in the absence of chemical substance,yeast gene YHR004C,1.1
same,The level of expressed mRNA in the presence of chemical substance/The level of expressed mRNA in the absence of chemical substance,yeast gene YHR071W,1.1
same,The level of expressed mRNA in the presence of chemical substance/,"yeast gene YHR138C, ratio to control without chemical substance, 2 h culture",1.8
same,The level of expressed mRNA in the presence of chemical substance/The level of expressed mRNA in the absence of chemical substance,yeast gene YHR139C,4.6
same,The level of expressed mRNA in the presence of chemical substance/The level of expressed mRNA in the absence of chemical substance,yeast gene YHR142W,0.8
same,The level of expressed mRNA in the presence of chemical substance/,"yeast gene YHR199C, ratio to control without chemical substance, 2 h culture",2.0
same,The level of expressed mRNA in the presence of chemical substance/,"yeast gene YIL023C, ratio to control without chemical",1.2
same,The level of expressed mRNA in the presence of chemical substance/,"yeast gene YIL041W, ratio to control without chemical substance, 2 h culture",1.2
same,The level of expressed mRNA in the presence of chemical substance/,"yeast gene YIL087C, ratio to control without chemical substance, 2 h culture",1.9
same,The level of expressed mRNA in the presence of chemical substance/The level of expressed mRNA in the absence of chemical substance,yeast gene YIL123W,0.5
same,The level of expressed mRNA in the presence of chemical substance/The level of expressed mRNA in the absence of chemical substance,yeast gene YIL140W,1.0
same,The level of expressed mRNA in the presence of chemical substance/,"yeast gene YJL057C, ratio to control without chemical substance, 2 h culture",1.2
same,The level of expressed mRNA in the presence of chemical substance/,"yeast gene YJL066C, ratio to control without chemical substance, 2 h culture",1.2
same,The level of expressed mRNA in the presence of chemical substance/in the absence of chemical substance,yeast gene YJL070C,0.9
same,The level of expressed mRNA in the presence of chemical substance/The level of expressed mRNA in the absence of chemical substance,yeast gene YJL073W,0.8
same,The level of expressed mRNA in the presence of chemical substance/,"yeast gene YJL082W, ratio to control without chemical substance, 2 h culture",0.8
same,The level of expressed mRNA in the presence of chemical substance/The level of expressed mRNA in the absence of chemical substance,yeast gene YJL089W,1.5
same,The level of expressed mRNA in the presence of chemical substance/The level of expressed mRNA in the absence of chemical substance,yeast gene YJL116C,1.8
same,The level of expressed mRNA in the presence of chemical substance/,"yeast gene YJL151C, ratio to control without chemical substance, 2 h culture",2.4
same,The level of expressed mRNA in the presence of chemical substance/,"yeast gene YJL152W, ratio to control without chemical substance, 2 h culture",1.5
same,The level of expressed mRNA in the presence of chemical substance/,"yeast gene YJL161W, ratio to control without chemical substance, 2 h culture",2.2
same,The level of expressed mRNA in the presence of chemical substance/in the absence of chemical substance,yeast gene YJL167W,1.4
same,The level of expressed mRNA in the presence of chemical substance/,"yeast gene YJL171C, ratio to control without chemical substance, 2 h culture",0.7
same,The level of expressed mRNA in the presence of chemical substance/in the absence of chemical substance,yeast gene YJL216C,4.7
same,The level of expressed mRNA in the presence of chemical substance/The level of expressed mRNA in the absence of chemical substance,yeast gene YJR004C,0.8
same,The level of expressed mRNA in the presence of chemical substance/,"yeast gene YJR008W, ratio to control without chemical substance, 2 h culture",1.5
same,The level of expressed mRNA in the presence of chemical substance/,"yeast gene YJR054W, ratio to control without chemical",0.9
same,The level of expressed mRNA in the presence of chemical substance/The level of expressed mRNA in the absence of chemical substance,yeast gene YJR086W,1.1
same,The level of expressed mRNA in the presence of chemical substance/The level of expressed mRNA in the absence of chemical substance,yeast gene YKL008C,0.6
same,The level of expressed mRNA in the presence of chemical substance/The level of expressed mRNA in the absence of chemical substance,yeast gene YKL013C,0.9
same,The level of expressed mRNA in the presence of chemical substance/The level of expressed mRNA in the absence of chemical substance,yeast gene YKL039W,1.1
same,The level of expressed mRNA in the presence of chemical substance/The level of expressed mRNA in the absence of chemical substance,yeast gene YKL041W,0.8
same,The level of expressed mRNA in the presence of chemical substance/,"yeast gene YKL071W, ratio to control without chemical substance, 2 h culture",3.8
